Reference: patent US20200276181A1, “THIENOISOQUINOLINES AND THEIR DERIVATIVES FOR TARGETING TUBULIN, CH-TOG, AURORA A KINASE, TPX2, CDK5RAP2 AND/OR ASPM” (VALORBEC, SEC, priority 2017, published 2020)

What was measured:
[1] = system: HeLa (cervical adenocarcinoma) cells; experiment: Cell viability IC50 (Table 3); assay type: cell-based, human
Experimental: (§1) To date, 30 variants with different structural modifications have been made. […] In particular, it is shown that C75 causes death in multiple cancer cells with IC50 values in the 100-400 nM range, including breast cancers (MCF7, BT549), lung cancer (A549), colorectal cancer (HCT116) in addition to HeLa cells (cervical cancer).

[2] = system: A549 cells; experiment: IC50 of derivatives (Table 5); assay type: cell-based, human; conditions: for IC50: Table 5, cell line only named in b213 (A549)
[3] = system: MCF7, BT549, A549, HCT116, HeLa cells; experiment: Viability in cancer vs non-cancer cell lines, summary of Table 3; assay type: cell-based, human
Experimental: as §1

[4] = system: A549 cells; experiment: Spindle morphology, DAPI and tubulin staining; assay type: cell-based, human; conditions: 300 nM, 4 hours
Experimental: FIG. 1A) is a line graph showing changes in the percentage of viable HFF-1, HeLa, A549 and HCT 116 cells after treatment with a range of C75 concentrations for 3 population doubling times (N=3). […] FIG. 1C) is a line graph showing the percentage of HeLa and HFF1 cells in mitosis after treatment with various concentrations of C75 for 8 hours. The bars indicate standard deviation. FIG. 1D) is a series of images showing cells that were fixed and co-stained for tubulin (microtubules) and DAPI (DNA). […] The scale bar for the cells is 10 μm. […] FIG. 1F) is a cartoon schematic showing the key features of a metaphase cell.

[5] = system: HCT116 spheroids; experiment: Multicellular tumour spheroids; assay type: cell-based; conditions: 10 nM paclitaxel or 250 nM C75 alone, 6 days
Experimental: FIGS. 5A, 5B, 5C, 5D, 5E, 5F, 5G, 5H, 5I, 5J, 5K, 5L and 5M show how C75 disrupts or reduces the growth of HeLa, HCT116 and A549 spheroids. FIG. 5A) images show HeLa spheroids over time (3 days) before and after treatment with control (1 μM C87; n=10), 250 nM (n=6) or 500 nM (n=10) of C75. The scale bar is 100 μm. FIG. 5B) is a series images of HeLa spheroids after three days of treatment with control (500 nM C87) or 500 nM C75. The spheroids were stained for fluorescein diacetate (to detect live cells) and propidium iodide (to detect dead cells). […] The scale bar is 100 μm. FIG. 5C) is a line graph showing the change in spheroid area (μm^2) for each day and treatment as indicated. Bars show standard deviation and the asterisks are p<0.05 as determined by the student's t test. FIG. 5D) images show HeLa spheroids over 3 days before and after treatment with empty nanoparticles (control; n=3) or 250 nM of nanoparticle-encapsulated C75 (n=3). The scale bar is 100 μm. […] Bars show standard deviation and the asterisks are p<0.05 as determined by the student's t test. FIG. 5F) is a series of images of HCT116 spheroids treated with control (1 μM C87; n=10), 500 nM C75 (n=10) and 1 μM C75 (n=10). FIG. 5G) is a series images of HCT116 spheroids after six days of treatment with control (1 μM C87) or 1 μM C75. The spheroids were stained for fluorescein diacetate (live cells) and propidium iodide (dead cells). […] FIG. 5H) is a line graph showing the growth in surface area (%) of HCT116 spheroids treated with control (1 μM C87), 500 nM C75 and 1 μM C75 after six days. FIG. 5I) is a series of images of A549 spheroids treated with control (1 μM C87, n=6), 500 nM C75 (n=6), and 1 μM C75 (n=6) over 5 days. The scale bar is 100 μm. FIG. 5J) is a series of images of A549 spheroids after six days of treatment with control (750 nM C87) or 1 μM C75. The spheroids were stained for fluorescein diacetate (live cells) and propidium iodide (dead cells). […] Bars show standard deviation and the asterisks are p<0.05 as determined by the student's t test. FIG. 5L) images show A549 spheroids over 6 days before and after treatment with empty nanoparticles (control; n=3) or 500 nM of nanoparticle-encapsulated C75 (n=3). The scale bar is 100 μm. […] Bars show standard deviation and the asterisks are p<0.05 as determined by the student's t test.
FIG. 11A) is a series of images of HCT116 spheroids treated with control (DMSO), 10 nM paclitaxel, 250 nM C75 or both for 6 days. […] The scale bar for the images is 100 μm. […] As shown in the images, adding paclitaxel and C75 in combination led to regression in spheroid size compared to each treatment on its own.
The thienoisoquinoline compounds may also have potential for use in combinatorial therapies. […]

SMILES | IC50 [1] | IC50 [2] | also measured
Cc1cccc(S(=O)(=O)N2Cc3ccccc3-c3sccc32)c1 [Compound C39] | > 1000 nM | > 1000 nM | –
Cc1ccc(S(=O)(=O)N2Cc3ccccc3-c3sc(-c4ccccc4)cc32)cc1 [Compound C71] | > 1000 nM | > 1000 nM | –
Cc1ccc(S(=O)(=O)N2Cc3ccccc3-c3sc(Br)cc32)cc1 [Compound C74] | > 1000 nM | > 1000 nM | –
Cc1ccc(S(=O)(=O)N2Cc3ccccc3-c3sccc32)cc1 [Compound C91] | – | – | IC50 ([2]; Homo sapiens): > 1000 nM; efficacy (effect on viability) in cancer cells vs. non-cancer cells [3]: higher efficacy
Cc1cccc(S(=O)(=O)N2Cc3ccccc3-c3sc(Br)cc32)c1 [Compound C93] | > 1000 nM | – | –
O=S(=O)(c1ccc(C(F)(F)F)cc1)N1Cc2ccccc2-c2sccc21 [Compound C108] | > 1000 nM | > 1000 nM | –
CC(C)(C)c1ccc(S(=O)(=O)N2Cc3ccccc3-c3sccc32)cc1 [Compound C109] | – | > 1000 nM | –
COc1ccc(S(=O)(=O)N2Cc3ccccc3-c3scc(C)c32)cc1 [Compound C127] | – | 635 nM | –
COc1ccc(S(=O)(=O)N2Cc3ccccc3-c3sc(Cl)c(C)c32)cc1 [Compound C128] | – | 549 nM | –
COc1ccc(S(=O)(=O)N2Cc3cccc([N+](=O)[O-])c3-c3sccc32)cc1 [Compound C130] | – | 439 nM | –
COc1ccc(S(=O)(=O)N2Cc3cccc([N+](=O)[O-])c3-c3sc(Br)cc32)cc1 [Compound C131] | – | 801 nM | –
COc1ccc(S(=O)(=O)N2Cc3cccc(N)c3-c3sccc32)cc1 [Compound C132] | – | > 1000 nM | –
COc1ccc(S(=O)(=O)N2Cc3c(Br)ccc(N)c3-c3sc(Br)cc32)cc1 [Compound C133] | – | > 1000 nM | –
COc1ccc(S(=O)(=O)N2Cc3ccccc3-c3sc(C=O)c(C)c32)cc1 [Compound C138] | – | 416 nM | –
COc1ccc(S(=O)(=O)N2Cc3ccccc3-c3sc(Br)c(C)c32)cc1 [Compound C139] | – | > 1000 nM | –
COc1ccc(S(=O)(=O)N2Cc3ccccc3-c3sc(C=O)cc32)cc1 [Compound C140] | – | 260 nM | efficacy relative to C75 ([2]; A549 cells): higher efficacy; spindle phenotype [4]: causes spindle phenotypes similar to C75
COc1ccc(S(=O)(=O)N2Cc3ccccc3-c3sc(C(=O)O)cc32)cc1 [Compound C141] | – | > 1000 nM | –
Cc1ccc(S(=O)(=O)N2Cc3ccccc3-c3sc(C=O)cc32)cc1 [Compound C142] | – | 456 nM | –
Cc1ccc(S(=O)(=O)N2Cc3ccccc3-c3sc(C(=O)O)cc32)cc1 [Compound C143] | – | > 1000 nM | –
O=S(=O)(c1ccc(C(F)(F)F)cc1)N1Cc2ccccc2-c2sc(Br)cc21 [Compound C200] | > 1000 nM | > 1000 nM | –
CC(C)(C)c1ccc(S(=O)(=O)N2Cc3ccccc3-c3sc(Br)cc32)cc1 [Compound C201] | > 1000 nM | > 1000 nM | –
COc1ccc(S(=O)(=O)N2Cc3ccccc3-c3sc(Cl)cc32)cc1 [Compound C208] | 204 nM | 434 nM | –
COc1ccc(S(=O)(=O)N2Cc3cc4c(cc3-c3sccc32)OCO4)cc1 [Compound C300] | – | > 1000 nM | –
COc1ccc(S(=O)(=O)N2Cc3cc4c(cc3-c3sc(Br)cc32)OCO4)cc1 [Compound C301] | – | > 1000 nM | –
CC(=O)O[C@H]1C(=O)[C@@]2(C)[C@H]([C@H](OC(=O)c3ccccc3)[C@]3(O)C[C@H](OC(=O)[C@H](O)[C@@H](NC(=O)c4ccccc4)c4ccccc4)C(C)=C1C3(C)C)[C@]1(OC(C)=O)CO[C@@H]1C[C@@H]2O [paclitaxel, reference compound] | – | – | spheroid growth, single drug [5]: failed to grow
